Assay results published in ChEMBL document CHEMBL1201862, “PubChem BioAssay data set” (2004).
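Results reflect a 48-hour exposure of cells in 96-well plates to compound at five concentrations. GI50 marks 50% less growth.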 The source made the active and inactive calls. Rule as the data show it: active = GI50 up to about 1.1 µM and inactive = higher.

Columns and labels:
Experiment in all cases: DTP human tumour cell line panel, 48 h
[1] = tested on: SK-MEL-28
[2] = tested on: MDA-N
[3] = tested on: ACHN
[4] = tested on: HOP-62
[5] = tested on: SN12C
[6] = tested on: NCI-H460
[7] = tested on: SF-539
[8] = tested on: NCI/ADR-RES
[9] = tested on: HCC 2998
[10] = tested on: U-251
[11] = tested on: K562
[12] = tested on: A549
[13] = tested on: M14
[14] = tested on: SW-620
[15] = tested on: HOP-92
[16] = tested on: NCI-H522
[17] = tested on: HCT-15
[18] = tested on: MDA-MB-231
[19] = tested on: KM12
[20] = tested on: MDA-MB-435
[21] = tested on: IGROV-1
[22] = tested on: MOLT-4
[23] = tested on: EKVX
[24] = tested on: PC-3
[25] = tested on: BT-549
[26] = tested on: RXF 393
[27] = tested on: HL-60
[28] = tested on: SNB-75
[29] = tested on: SF-295
[30] = tested on: SF-268
[31] = tested on: Malme-3M
[32] = tested on: SK-MEL-5
[33] = tested on: SNB-19
[34] = tested on: UACC-62
[35] = tested on: NCI-H23
[36] = tested on: OVCAR-3
[37] = tested on: TK-10
[38] = tested on: SK-MEL-2
[39] = tested on: NCI-H226
[40] = tested on: UO-31
[41] = tested on: UACC-257
[42] = tested on: SK-OV-3
[43] = tested on: T47D
[44] = tested on: DU-145
[45] = tested on: MCF7
[46] = tested on: HT-29
[47] = tested on: 786-0
[48] = tested on: Hs-578T
[49] = tested on: CAKI-1
[50] = tested on: OVCAR-5
[51] = tested on: A498
[52] = tested on: LOX IMVI
[53] = tested on: COLO 205
[54] = tested on: HCT-116
[55] = tested on: OVCAR-8
[56] = tested on: CCRF-CEM
[57] = tested on: OVCAR-4

Which GI50 [1] does the source give for COc1cc(OC)c2c(=O)c(OC)c(-c3ccc4c(c3)OCO4)oc2c1OC here?
Its GI50 is > 100 µM (inactive).

And the GI50 [2]?
Its GI50 is > 100 µM (inactive).

And the GI50 [3]?
Its GI50 is 83.8 µM (inactive).

What about the GI50 [4] of the same compound?
Its GI50 is 91.8 µM (inactive).

And the GI50 [5]?
The GI50 was > 100 µM (inactive).

And the GI50 [6]?
Its GI50 is > 100 µM (inactive).

What about the GI50 [7] of the same compound?
The GI50 was > 100 µM (inactive).

And the GI50 [8]?
Its GI50 is > 100 µM (inactive).

What about the GI50 [9] of the same compound?
The GI50 was > 100 µM (inactive).

What about the GI50 [10] of the same compound?
Its GI50 is > 100 µM (inactive).

And the GI50 [11]?
The GI50 was > 100 µM (inactive).

And the GI50 [12]?
The GI50 was > 100 µM (inactive).

What about the GI50 [13] of the same compound?
The GI50 was > 100 µM (inactive).

And the GI50 [14]?
The GI50 was > 100 µM (inactive).

What about the GI50 [15] of the same compound?
Its GI50 is 4.91 µM (inactive).

What about the GI50 [16] of the same compound?
The GI50 was 43.1 µM (inactive).

What about the GI50 [17] of the same compound?
The GI50 was over 100 µM.

What about the GI50 [18] of the same compound?
The GI50 was 91.4 µM (inactive).

And the GI50 [19]?
Its GI50 is > 100 µM (inactive).

What about the GI50 [20] of the same compound?
Its GI50 is > 100 µM (inactive).

What about the GI50 [21] of the same compound?
The GI50 was > 100 µM (inactive).

What about the GI50 [22] of the same compound?
Its GI50 is 78.5 µM (inactive).

What about the GI50 [23] of the same compound?
Its GI50 is 47 µM (inactive).

And the GI50 [24]?
The GI50 was > 100 µM (inactive).

What about the GI50 [25] of the same compound?
The GI50 was > 100 µM (inactive).

And the GI50 [26]?
The GI50 was > 100 µM (inactive).

What about the GI50 [27] of the same compound?
Its GI50 is 6.82 µM (inactive).

And the GI50 [28]?
Its GI50 is > 100 µM (inactive).

What about the GI50 [29] of the same compound?
The GI50 was 91.4 µM (inactive).

What about the GI50 [30] of the same compound?
The GI50 was > 100 µM (inactive).

And the GI50 [31]?
Its GI50 is > 100 µM (inactive).

And the GI50 [32]?
The GI50 was 23.2 µM (inactive).

What about the GI50 [33] of the same compound?
The GI50 was > 100 µM (inactive).

And the GI50 [34]?
Its GI50 is 98.9 µM (inactive).

What about the GI50 [35] of the same compound?
Its GI50 is > 100 µM (inactive).

What about the GI50 [36] of the same compound?
The GI50 was > 100 µM (inactive).

And the GI50 [37]?
The GI50 was > 100 µM (inactive).

And the GI50 [38]?
Its GI50 is > 100 µM (inactive).

What about the GI50 [39] of the same compound?
Its GI50 is > 100 µM (inactive).

And the GI50 [40]?
The GI50 was > 100 µM (inactive).

What about the GI50 [41] of the same compound?
Its GI50 is > 100 µM (inactive).

And the GI50 [42]?
The GI50 was > 100 µM (inactive).

And the GI50 [43]?
Its GI50 is 41.8 µM (inactive).

What about the GI50 [44] of the same compound?
The GI50 was 81.1 µM (inactive).

What about the GI50 [45] of the same compound?
Its GI50 is > 100 µM (inactive).

What about the GI50 [46] of the same compound?
Its GI50 is > 100 µM (inactive).

What about the GI50 [47] of the same compound?
Its GI50 is > 100 µM (inactive).

What about the GI50 [48] of the same compound?
Its GI50 is > 100 µM (inactive).

And the GI50 [49]?
The GI50 was > 100 µM (inactive).

What about the GI50 [50] of the same compound?
Its GI50 is > 100 µM (inactive).

What about the GI50 [51] of the same compound?
Its GI50 is > 100 µM (inactive).

And the GI50 [52]?
Its GI50 is 41.2 µM (inactive).

What about the GI50 [53] of the same compound?
Its GI50 is 53.6 µM (inactive).

And the GI50 [54]?
Its GI50 is 83.9 µM (inactive).

And the GI50 [55]?
The GI50 was > 100 µM (inactive).

And the GI50 [56]?
Its GI50 is 28.5 µM (inactive).

COC(=O)c1cc(C)ccc1CC(Cc1ccccc1C)C(=O)OC (stereo not given) was tested. Which GI50 [1] did it give?
The GI50 was 88.1 µM (inactive).

What about the GI50 [2] of the same compound?
Its GI50 is 28.4 µM (inactive).

What about the GI50 [3] of the same compound?
The GI50 was 75.2 µM (inactive).

What about the GI50 [4] of the same compound?
The GI50 was > 100 µM (inactive).

And the GI50 [5]?
Its GI50 is 44.9 µM (inactive).

And the GI50 [6]?
The GI50 was 78 µM (inactive).

And the GI50 [7]?
Its GI50 is > 100 µM (inactive).

And the GI50 [8]?
The GI50 was 32.6 µM (inactive).

What about the GI50 [9] of the same compound?
Its GI50 is 34.9 µM (inactive).

What about the GI50 [11] of the same compound?
Its GI50 is 10.6 µM (inactive).

And the GI50 [12]?
The GI50 was 51.6 µM (inactive).

What about the GI50 [13] of the same compound?
The GI50 was 29.6 µM (inactive).

And the GI50 [14]?
Its GI50 is 69 µM (inactive).

What about the GI50 [15] of the same compound?
The GI50 was 14.4 µM (inactive).

And the GI50 [16]?
Its GI50 is 25.8 µM (inactive).

And the GI50 [17]?
Its GI50 is 21.4 µM.

What about the GI50 [18] of the same compound?
Its GI50 is 59.6 µM (inactive).

And the GI50 [19]?
The GI50 was 23.8 µM (inactive).

What about the GI50 [20] of the same compound?
The GI50 was 18.1 µM (inactive).

What about the GI50 [21] of the same compound?
Its GI50 is 45.9 µM (inactive).

And the GI50 [22]?
The GI50 was 2.56 µM (inactive).

And the GI50 [23]?
Its GI50 is 18.7 µM (inactive).

And the GI50 [24]?
Its GI50 is 55.2 µM (inactive).

And the GI50 [25]?
Its GI50 is 61.7 µM (inactive).

What about the GI50 [26] of the same compound?
Its GI50 is 26.9 µM (inactive).

And the GI50 [27]?
The GI50 was 13.2 µM (inactive).

What about the GI50 [28] of the same compound?
Its GI50 is > 100 µM (inactive).

And the GI50 [29]?
Its GI50 is 38.2 µM (inactive).

And the GI50 [30]?
Its GI50 is 61.2 µM (inactive).

And the GI50 [31]?
Its GI50 is 23.2 µM (inactive).

And the GI50 [32]?
The GI50 was 14.1 µM (inactive).

And the GI50 [33]?
The GI50 was > 100 µM (inactive).

And the GI50 [34]?
The GI50 was 27.5 µM (inactive).

What about the GI50 [35] of the same compound?
The GI50 was 40.1 µM (inactive).

What about the GI50 [57] of the same compound?
Its GI50 is 29.7 µM (inactive).

What about the GI50 [36] of the same compound?
Its GI50 is 24.4 µM (inactive).

What about the GI50 [37] of the same compound?
The GI50 was > 100 µM (inactive).

And the GI50 [39]?
The GI50 was 81.7 µM (inactive).

And the GI50 [40]?
The GI50 was 31 µM (inactive).

What about the GI50 [41] of the same compound?
The GI50 was 27 µM (inactive).

What about the GI50 [42] of the same compound?
Its GI50 is > 100 µM (inactive).

And the GI50 [43]?
The GI50 was 26 µM (inactive).

What about the GI50 [44] of the same compound?
The GI50 was > 100 µM (inactive).

What about the GI50 [45] of the same compound?
The GI50 was 23.3 µM (inactive).

And the GI50 [46]?
The GI50 was 22 µM (inactive).

And the GI50 [47]?
The GI50 was 89.5 µM (inactive).

And the GI50 [48]?
Its GI50 is 27.9 µM (inactive).

And the GI50 [49]?
The GI50 was 32.8 µM (inactive).

And the GI50 [51]?
The GI50 was 60.4 µM (inactive).

And the GI50 [52]?
Its GI50 is 12.5 µM (inactive).

And the GI50 [53]?
Its GI50 is 46.2 µM (inactive).

And the GI50 [54]?
Its GI50 is 14.7 µM (inactive).

What about the GI50 [55] of the same compound?
The GI50 was 45.5 µM (inactive).

And the GI50 [56]?
The GI50 was 14 µM (inactive).
